Laboratory results from publication PMC9958891 (2023).

Experiments:
[1] = test system: c-myc Pu22 (c-myc G4 DNA) (DNA, G4) TGAGGGTGGGTAGGGTGGGTAA; assay: UV-vis absorption titration; settings: K+ 100 mM; 10 mM Tris-HCl, pH 7.2, room temperature; 20 μM complex
[2] = test system: 5'-FAM-c-myc-TAMRA-3' (c-myc G4 DNA, FRET) (DNA, G4) TGAGGGTGGGTAGGGTGGGTAA; assay: FRET melting; settings: K+ 100 mM, Na+ (10 mM Na3AsO4); 10 mM Tris-HCl pH 7.4; 0.2 μM DNA; compound concentration not stated; value per abstract, b23 order differs

Row | SMILES | binding constant [1] | ΔTm [2]
1 | COc1ccc(CCc2cc(OC)c(OC)c(OC)c2)cc1OCCCCn1c(-c2ccc(C(F)(F)F)cc2)nc2c3cccnc3c3ncccc3c21.[Ru+2].c1cnc2c(c1)ccc1cccnc12.c1cnc2c(c1)ccc1cccnc12 | ~ 2.05 × 10^7 M^−1 | ~ 16.5 °C
2 | COc1ccc(CCc2cc(OC)c(OC)c(OC)c2)cc1OCCCCn1c(-c2ccccc2C(F)(F)F)nc2c3cccnc3c3ncccc3c21.[Ru+2].c1cnc2c(c1)ccc1cccnc12.c1cnc2c(c1)ccc1cccnc12 | – | ~ 15.5 °C
